Data as given in publication PMC10733463, “Berberine-microbiota interplay: orchestrating gut health through modulation of the gut microbiota and metabolic transformation into bioactive metabolites” (Frontiers in Pharmacology, 2023).

Assays:
Caco-2 cells = assay: Cell viability assay (neutral red uptake), Caco-2; assay type: cell-based, human; details: 0.1 µg berberine/mL medium
Procedure: Caco-2 cells (human intestinal epithelial cells) were cultured in MEM (Gibco, Paisley, United Kingdom) supplemented with 10% Fetal Bovine Serum (FBS), 1% L-glutamine (Gibco), 1% MEM NEAA (Gibco) and 1% penicillin/streptomycin (P/S) (Gibco). T84 cells (human intestinal epithelial cells) were cultured in 1:1 DMEM/F12 (Gibco) supplemented with 10% FBS, 1% L-glutamine and 1% P/S (37°C, 5% CO2). The neutral red uptake assay was employed to evaluate the potential cytotoxicity of berberine ([Repetto et al., 2008]). Briefly, Caco-2 and T84 were seeded at 2 × 10^5 cells/well and 5 × 10^4 cells/well respectively in 96-well plates (Greiner Bio-one, Frickenhausen, Germany) and cultivated for 24 h in antibiotic-free medium (treatment medium) for attachment. […] A 10-fold dilution of sodium dodecyl sulfate (Sigma-Aldrich), ranging from 10 mg/mL to 10^−6 mg/mL was used a positive control. Cells were washed with 200 µL pre-warmed HBSS(+) (Gibco) and then treated with 150 µL of Neutral Red medium, consisting of 1:80 Neutral Red solution 0.33% (Sigma-Aldrich)/treatment medium for 3 h. Cells were washed in 200 µL HBSS(+) and treated with 100 µL of Neutral Red Desorb solution, consisting of 1% glacial acetic acid (Merck, Darmstadt, Germany), 50% ethanol (95%, Chem-Lab, Zedelgem, Belgium) and 49% deionized water.

caecal microbiota = assay: SCFA quantification (GC-FID) in caecal contents of chickens; assay type: in vivo, Ross 308 broiler chickens; details: high dose (1 g berberine/kg feed), 21 days; p = 0.045
Procedure: 250 mg caecal content derived from the in vivo trial were weighed and diluted 1:20 for SCFA analysis. Acetate, propionate and butyrate were quantified using the GC-FID method described by ([De […] et al., 2010]). This method involves the extraction of SCFA from samples with diethyl ether after the addition of 2-methyl hexanoic acid as an internal standard.

[1] = Bodyweight of broilers fed berberine-supplemented diet; assay type: in vivo, Ross 308 broiler chickens; details: 21 days post-hatch, n = 12
Excerpt: The study was undertaken following the guidelines of the ethics committee of the Faculty of Veterinary Medicine and Bioscience Engineering, Ghent University, in accordance with the EU Directive 2010/63/EU. […] They were allotted into 4 groups, with three replicate pens per group each housing 8 chickens. The animals were not vaccinated. Water and commercial starter feed (day 1-12, FARM 1 Mash, Country's Best, […], Belgium) or grower (day 13-21, FARM 2 mash, Country's Best, […], Belgium) were provided ad libitum. […] At day 21, 4 birds per pen were weighted then euthanized by sodium pentobarbital injection for sampling. […] Additionally, ileal and caecal content samples were collected and stored at -20°C for berberine and berberine-derived metabolite quantification.

ileal microbiota = assay: 16S rRNA gene sequencing, microbiota composition in the ileum; assay type: in vivo, Ross 308 broiler chickens
[2] = 0.1 g berberine/kg feed vs normal diet, 21 days, LinDA-normalized abundance
[3] = 0.1 g berberine/kg feed, 21 days
[4] = 0.5 g berberine/kg feed vs normal diet, 21 days, LinDA-normalized abundance
[5] = 0.5 g berberine/kg feed, 21 days
[6] = 1 g berberine/kg feed vs normal diet, 21 days, LinDA-normalized abundance

Structure (SMILES): COc1ccc2cc3[n+](cc2c1OC)CCc1cc2c(cc1-3)OCO2 [Berberine, Berberine chloride]
- Cytotoxicity (Neutral Red Uptake) (Caco-2 cells): considered safe
- Propionate in the caecum (GC-FID) (caecal microbiota): significantly increased
- Bodyweight ([1]; 0.1 g berberine/kg feed): 655 ± 76 g
- Bodyweight ([1]; 0.5 g berberine/kg feed): 703 ± 115 g
- Bodyweight ([1]; 1 g berberine/kg feed): 671 ± 55 g
- L2 FC Cronobacter, 0.1 vs 0 (ileal microbiota; [2]): 0.38
- L2 FC Curtobacterium, 0.1 vs 0 (ileal microbiota; [2]): -0.49
- L2 FC Faecalibacterium, 0.1 vs 0 (ileal microbiota; [2]): 1.89
- L2 FC Family_ Peptostreptococcaceae, 0.1 vs 0 (ileal microbiota; [2]): 2.07
- L2 FC Glutamicibacter, 0.1 vs 0 (ileal microbiota; [2]): 0.33
- L2 FC Lachnoclostridium 5, 0.1 vs 0 (ileal microbiota; [2]): 0.40
- L2 FC Ralstonia, 0.1 vs 0 (ileal microbiota; [2]): -0.96
- L2 FC Romboutsia, 0.1 vs 0 (ileal microbiota; [2]): 2.23
- L2 FC Serratia, 0.1 vs 0 (ileal microbiota; [2]): 0.03
- L2 FC Tyzzerella, 0.1 vs 0 (ileal microbiota; [2]): 0.06
- L2 FC uncultured genus of Mollicutes RF39, 0.1 vs 0 (ileal microbiota; [2]): 0.63
- L2 FC uncultured genus of Peptostreptococcaceae, 0.1 vs 0 (ileal microbiota; [2]): 1.99
- Mean relative abundance (%) Cronobacter (ileal microbiota; [3]): 0.00%
- Mean relative abundance (%) Curtobacterium (ileal microbiota; [3]): 0.01%
- Mean relative abundance (%) Faecalibacterium (ileal microbiota; [3]): 0.02%
- Mean relative abundance (%) Family_ Peptostreptococcaceae (ileal microbiota; [3]): 0.37%
- Mean relative abundance (%) Glutamicibacter (ileal microbiota; [3]): 0.01%
- Mean relative abundance (%) Lachnoclostridium 5 (ileal microbiota; [3]): 0.00%
- Mean relative abundance (%) Ralstonia (ileal microbiota; [3]): 0.04%
- Mean relative abundance (%) Romboutsia (ileal microbiota; [3]): 0.24%
- Mean relative abundance (%) Serratia (ileal microbiota; [3]): 0.00%
- Mean relative abundance (%) Tyzzerella (ileal microbiota; [3]): 0.00%
- Mean relative abundance (%) uncultured genus of Mollicutes RF39 (ileal microbiota; [3]): 0.00%
- Mean relative abundance (%) uncultured genus of Peptostreptococcaceae (ileal microbiota; [3]): 38.50%
- Mean relative abundance of Lachnospiraceae (ileal microbiota; [3]): 2.54%
- Mean relative abundance of Peptostreptococcaceae (ileal microbiota; [3]): 39.1%
- Mean relative abundance of Ruminococcaceae (ileal microbiota; [3]): 1.35%
- L2FC of LinDA-normalized abundance of Lachnospiraceae (ileal microbiota; 0.1 vs 0 g berberine/kg feed): -0.49
- L2FC of LinDA-normalized abundance of Peptostreptococcaceae (ileal microbiota; 0.1 vs 0 g berberine/kg feed): 1.55
- L2FC of LinDA-normalized abundance of Ruminococcaceae (ileal microbiota; 0.1 vs 0 g berberine/kg feed): 0.41
- L2 FC Cronobacter, 0.5 vs 0 (ileal microbiota; [4]): -0.95
- L2 FC Curtobacterium, 0.5 vs 0 (ileal microbiota; [4]): -1.50
- L2 FC Faecalibacterium, 0.5 vs 0 (ileal microbiota; [4]): 1.01
- L2 FC Family_ Peptostreptococcaceae, 0.5 vs 0 (ileal microbiota; [4]): -0.52
- L2 FC Glutamicibacter, 0.5 vs 0 (ileal microbiota; [4]): -0.49
- L2 FC Lachnoclostridium 5, 0.5 vs 0 (ileal microbiota; [4]): -0.09
- L2 FC Ralstonia, 0.5 vs 0 (ileal microbiota; [4]): -1.95
- L2 FC Romboutsia, 0.5 vs 0 (ileal microbiota; [4]): -0.07
- L2 FC Serratia, 0.5 vs 0 (ileal microbiota; [4]): -0.80
- L2 FC Tyzzerella, 0.5 vs 0 (ileal microbiota; [4]): -0.72
- L2 FC uncultured genus of Mollicutes RF39, 0.5 vs 0 (ileal microbiota; [4]): 0.65
- L2 FC uncultured genus of Peptostreptococcaceae, 0.5 vs 0 (ileal microbiota; [4]): -0.24
- Mean relative abundance (%) Cronobacter (ileal microbiota; [5]): 0.00%
- Mean relative abundance (%) Curtobacterium (ileal microbiota; [5]): 0.02%
- Mean relative abundance (%) Faecalibacterium (ileal microbiota; [5]): 0.02%
- Mean relative abundance (%) Family_ Peptostreptococcaceae (ileal microbiota; [5]): 0.15%
- Mean relative abundance (%) Glutamicibacter (ileal microbiota; [5]): 0.01%
- Mean relative abundance (%) Lachnoclostridium 5 (ileal microbiota; [5]): 0.02%
- Mean relative abundance (%) Ralstonia (ileal microbiota; [5]): 0.05%
- Mean relative abundance (%) Romboutsia (ileal microbiota; [5]): 0.13%
- Mean relative abundance (%) Serratia (ileal microbiota; [5]): 0.00%
- Mean relative abundance (%) Tyzzerella (ileal microbiota; [5]): 0.00%
- Mean relative abundance (%) uncultured genus of Mollicutes RF39 (ileal microbiota; [5]): 0.02%
- Mean relative abundance (%) uncultured genus of Peptostreptococcaceae (ileal microbiota; [5]): 24.63%
- Mean relative abundance of Lachnospiraceae (ileal microbiota; [5]): 14.77%
- Mean relative abundance of Peptostreptococcaceae (ileal microbiota; [5]): 24.91%
- Mean relative abundance of Ruminococcaceae (ileal microbiota; [5]): 6.11%
- L2FC of LinDA-normalized abundance of Lachnospiraceae (ileal microbiota; 0.5 vs 0 g berberine/kg feed): -0.17
- L2FC of LinDA-normalized abundance of Peptostreptococcaceae (ileal microbiota; 0.5 vs 0 g berberine/kg feed): -0.50
- L2FC of LinDA-normalized abundance of Ruminococcaceae (ileal microbiota; 0.5 vs 0 g berberine/kg feed): 0.24
- L2 FC Cronobacter, 1 vs 0 (ileal microbiota; [6]): -3.64
- L2 FC Curtobacterium, 1 vs 0 (ileal microbiota; [6]): -2.66
- L2 FC Faecalibacterium, 1 vs 0 (ileal microbiota; [6]): -2.86
- L2 FC Family_ Peptostreptococcaceae, 1 vs 0 (ileal microbiota; [6]): -7.51
- L2 FC Glutamicibacter, 1 vs 0 (ileal microbiota; [6]): -2.76
- L2 FC Lachnoclostridium 5, 1 vs 0 (ileal microbiota; [6]): -3.40
- L2 FC Ralstonia, 1 vs 0 (ileal microbiota; [6]): -5.90
- L2 FC Romboutsia, 1 vs 0 (ileal microbiota; [6]): -6.95
- L2 FC Serratia, 1 vs 0 (ileal microbiota; [6]): -3.49
- L2 FC Tyzzerella, 1 vs 0 (ileal microbiota; [6]): -2.59
- L2 FC uncultured genus of Mollicutes RF39, 1 vs 0 (ileal microbiota; [6]): -3.09
- L2 FC uncultured genus of Peptostreptococcaceae, 1 vs 0 (ileal microbiota; [6]): -9.51
- Mean relative abundance (%) Cronobacter (ileal microbiota; 1 g berberine/kg feed, 21 days): 0.00%
- Mean relative abundance (%) Curtobacterium (ileal microbiota; 1 g berberine/kg feed, 21 days): 0.03%
- Mean relative abundance (%) Faecalibacterium (ileal microbiota; 1 g berberine/kg feed, 21 days): 0.01%
- Mean relative abundance (%) Family_ Peptostreptococcaceae (ileal microbiota; 1 g berberine/kg feed, 21 days): 0.01%
- Mean relative abundance (%) Glutamicibacter (ileal microbiota; 1 g berberine/kg feed, 21 days): 0.01%
- Mean relative abundance (%) Lachnoclostridium 5 (ileal microbiota; 1 g berberine/kg feed, 21 days): 0.00%
- Mean relative abundance (%) Ralstonia (ileal microbiota; 1 g berberine/kg feed, 21 days): 0.37%
- Mean relative abundance (%) Romboutsia (ileal microbiota; 1 g berberine/kg feed, 21 days): 0.01%
- Mean relative abundance (%) Serratia (ileal microbiota; 1 g berberine/kg feed, 21 days): 0.00%
- Mean relative abundance (%) Tyzzerella (ileal microbiota; 1 g berberine/kg feed, 21 days): 0.01%
- Mean relative abundance (%) uncultured genus of Mollicutes RF39 (ileal microbiota; 1 g berberine/kg feed, 21 days): 0.00%
- Mean relative abundance (%) uncultured genus of Peptostreptococcaceae (ileal microbiota; 1 g berberine/kg feed, 21 days): 0.72%
- Mean relative abundance of Lachnospiraceae (ileal microbiota; 1 g berberine/kg feed, 21 days): 26.87%
- Mean relative abundance of Peptostreptococcaceae (ileal microbiota; 1 g berberine/kg feed, 21 days): 0.73%
- Mean relative abundance of Ruminococcaceae (ileal microbiota; 1 g berberine/kg feed, 21 days): 8.08%
- L2FC of LinDA-normalized abundance of Lachnospiraceae (ileal microbiota; 1 vs 0 g berberine/kg feed): 2.99
- L2FC of LinDA-normalized abundance of Peptostreptococcaceae (ileal microbiota; 1 vs 0 g berberine/kg feed): -6.91
- L2FC of LinDA-normalized abundance of Ruminococcaceae (ileal microbiota; 1 vs 0 g berberine/kg feed): 3.41
- Estimated microbial diversity (Shannon index) (ileal microbiota; highest concentration (1 g/kg feed), p = 0.045): significantly increased
- Abundance of phylum Tenericutes (ileal microbiota; lowest concentration (0.1 g/kg feed)): increase
